Experimental data published in patent US10668156B2, “Active-ingredient-containing solid dispersions based on diethylaminoethyl methacrylate copolymers” (BASF SE, priority 2012, dated 2020).

Experiments:
Format in all cases: physicochemical
[1] = Film method: loading capacity of active ingredient in polymer films, microscopic assessment after storage; conditions: for Loading capacity, active ingredients in %, Films with Kollicoat ® Smartseal + 6 mol partially neutralized: 6 mol % of basic groups neutralized with adipic acid; for Loading capacity, active ingredients in %, Films with Kollicoat ® Smartseal + 6 mol partially neutralized / Loading capacity, active ingredients in %, Films with Kollicoat ® Smartseal + 8 mol partially neutralized / Loading capacity, active ingredients in %, Films with Eudragit ® EPO / Loading capacity, active ingredients in %, Films with Kollicoat ® Smartseal freeze-dried: no crystals in film, storage 7 days 23° C./54% relative humidity; for Loading capacity, active ingredients in %, Films with Kollicoat ® Smartseal + 8 mol partially neutralized: 8 mol % of basic groups neutralized with succinic acid; for Loading capacity, active ingredients in %, Films with Eudragit ® EPO / Loading capacity, active ingredients in %, Films with Kollicoat ® Smartseal freeze-dried: molecularly disperse dissolved active ingredient
Excerpt: The film method is a process in which a clear solution of the polymer and of the active ingredient is molded to give a thin film which solidifies as a result of the solvent evaporating. Clear solution means that no clouding is evident upon normal inspection. This method is suitable in particular as a screening method in order to determine the loading limits of the solid dispersions in a simple manner. For the screening process, the film can be produced by pouring the solution with the corresponding concentrations of polymer and active ingredient onto glass plates and drawing it out with the help of a blade to give the film. Usually, the films are drawn to layer thicknesses of from 50 to 200 μm. The resulting films are then dried by drawing off the solvent, and solidified as a result. In one or more embodiments, the solvent is removed in vacuo, for example at 1 hPa to 100 hPa. […] Additionally, the removal of the solvent can be effected by the action of temperature.
For the screening process, the films produced are then stored under controlled climatic conditions for defined periods of time—generally 14 days.
The films can then be evaluated by microscope at 40 times magnification. Clear films are a sign of amorphous systems. Cloudy films point to relatively large crystalline fractions.
To prepare the polymer/active ingredient mixture, the substances were weighed in the respective amounts into a 50 ml penicillin bottle.
All of the mixtures were stirred for 24 h on a magnetic stirrer until the constituents had dissolved. After visually assessing the solution (clear solution), the solvent was drawn out on a glass plate using a 120 μm blade. The resulting film was dried for 0.5 h at room temperature of 22+/−2° C. in a fume cupboard and then for 0.5 h in a vacuum drying cabinet at 50° C. and […]. […] Clear films (without active ingredient crystals) indicate molecularly disperse solutions and cloudy films (with active ingredient crystals) indicate crystalline systems.

[2] = Spray-drying: loading capacity assessed by DSC; conditions: active ingredient in Kollicoat ® Smartseal
Procedure: (§1) To prepare the polymer/active ingredient mixture, the substances were weighed into an appropriate storage vessel. The corresponding amount of solvent was added and the mixture was stirred until the polymer and the active ingredient had completely dissolved. […] The solids fraction of the spraying solution was 20% by weight for all experiments. The spray-drying was carried out on a laboratory scale.
(§2) The liquid to be dried was atomized using a two-material nozzle. A heated gas (here nitrogen) flowing concurrently dries the distributed drops to give solid particles with particle diameters in the range 5-20 μm. In the entry area of the spray drier, the drying gas is supplied tangentially. The dry product particles are separated off in a cyclone.

[3] = Spray-drying: loading capacity assessed by XRD; conditions: active ingredient in Kollicoat ® Smartseal
Procedure: as §1, §2
Loading capacity of Kollicoat® Smartseal with different active ingredients in the spray-drying. Spray-drying experiments carried out on the laboratory scale: • 1. Itraconazole: Kollicoat® Smartseal with 40+50% (w/w) itraconazole • 2. Fenofibrate: Kollicoat® Smartseal with 40+50% (w/w) fenofibrate • 3.

Row | Structure (SMILES) | Loading capacity, active ingredients in %, Films with Kollicoat ® Smartseal + 6 mol partially neutralized [1] [%] | Loading capacity, active ingredients in %, Films with Kollicoat ® Smartseal + 8 mol partially neutralized [1] [%] | Loading capacity, active ingredients in %, Films with Eudragit ® EPO [1] [%] | Loading capacity, active ingredients in %, Films with Kollicoat ® Smartseal freeze-dried [1] [%] | Loading spray-drying [DSC, %] [2] [%] | Loading spray-drying [XRD, %] [3] [%] | Loading film method ([1]; active ingredient in Kollicoat ® Smartseal) [%]
1 | Clc1ccccc1C(c1ccccc1)(c1ccccc1)n1ccnc1 [Clotrimazole] | 35 | 35 | 20 | 35 |  |  | 
2 | NC(=O)N1c2ccccc2C=Cc2ccccc21 [Carbamazepine] | 30 | 30 | <10 | 20 |  |  | 

Second part, the compound after the results:

Row | Loading capacity, active ingredients in %, Films with Kollicoat ® Smartseal + 6 mol partially neutralized [1] [%] | Loading capacity, active ingredients in %, Films with Kollicoat ® Smartseal + 8 mol partially neutralized [1] [%] | Loading capacity, active ingredients in %, Films with Eudragit ® EPO [1] [%] | Loading capacity, active ingredients in %, Films with Kollicoat ® Smartseal freeze-dried [1] [%] | Loading spray-drying [DSC, %] [2] [%] | Loading spray-drying [XRD, %] [3] [%] | Loading film method ([1]; active ingredient in Kollicoat ® Smartseal) [%] | Structure (SMILES)
3 | 50 | 50 | <10 | 50 |  |  |  | C#C[C@]1(O)CC[C@H]2[C@@H]3CCC4=Cc5oncc5C[C@]4(C)[C@H]3CC[C@@]21C [Danazol]
4 |  |  | 30 |  | 50 | 50 | 50 | COc1ccc2cc([C@H](C)C(=O)O)ccc2c1 [Naproxen]
5 | 30 | 30 |  |  |  |  |  | CC(C)Cc1ccc(C(C)C(=O)O)cc1 (stereo not drawn) [Ibuprofen 50, Ibuprofen]
